Measurements as given in patent US20260262643A1, “HERBICIDAL BENZOXAZINES” (FMC CORPORATION, priority 2022, published 2026).

Experiments:
barnyardgrass [1] = assay: Test C preemergence; type: in vivo, Echinochloa crusgalli; details: 0 to 100 scale (0 no effect, 100 complete control); for Plant response rating, Barnyardgrass: Preemergence, 500 g ai/ha, visual rating after 10 days; for Barnyardgrass plant response rating: Test C, preemergence, 125 g ai/ha
Summary of the method: (§1)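 Soil-applied (pre) and foliar (post, 1–2 leaf, 2–10 cm) sprays; surfactant-containing non-phytotoxic solvent vehicle; loam/sand substrate. Readout: visual % control at 10 d, greenhouse, versus untreated.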

blackgrass [2] = assay: Test C preemergence; type: in vivo, Alopecurus myosuroides; details: 0 to 100 scale (0 no effect, 100 complete control); for Plant response rating, Blackgrass: Preemergence, 500 g ai/ha, visual rating after 10 days; for Blackgrass plant response rating: Test C, preemergence, 125 g ai/ha
Summary of the method: as §1

corn [3] = assay: Test C preemergence; type: in vivo, Zea mays; details: 0 to 100 scale (0 no effect, 100 complete control); for Plant response rating, Corn: Preemergence, 500 g ai/ha, visual rating after 10 days; for Corn plant response rating: Test C, preemergence, 125 g ai/ha
Summary of the method: as §1

green foxtail [4] = assay: Test C preemergence; type: in vivo, Setaria viridis; details: 0 to 100 scale (0 no effect, 100 complete control); for Plant response rating, Foxtail, Green: Preemergence, 500 g ai/ha, visual rating after 10 days; for Foxtail, Green plant response rating: Test C, preemergence, 125 g ai/ha
Summary of the method: as §1

kochia [5] = assay: Test C preemergence; type: in vivo, Bassia scoparia; details: 0 to 100 scale (0 no effect, 100 complete control); for Plant response rating, Kochia: Preemergence, 500 g ai/ha, visual rating after 10 days; for Kochia plant response rating: Test C, preemergence, 125 g ai/ha
Summary of the method: as §1

oat, wild [6] = assay: Test C preemergence; type: in vivo, Avena fatua; details: 0 to 100 scale (0 no effect, 100 complete control); for Plant response rating, Oat, Wild: Preemergence, 500 g ai/ha, visual rating after 10 days; for Oat, Wild plant response rating: Test C, preemergence, 125 g ai/ha
Summary of the method: as §1

pigweed, palmer [7] = assay: Test C preemergence; type: in vivo, Amaranthus palmeri; details: 0 to 100 scale (0 no effect, 100 complete control); for Plant response rating, Pigweed, Palmer: Preemergence, 500 g ai/ha, visual rating after 10 days; for Pigweed, Palmer plant response rating: Test C, preemergence, 125 g ai/ha
Summary of the method: as §1

ragweed [8] = assay: Test C preemergence; type: in vivo, Ambrosia artemisiifolia; details: 0 to 100 scale (0 no effect, 100 complete control); for Plant response rating, Ragweed: Preemergence, 500 g ai/ha, visual rating after 10 days; for Ragweed plant response rating: Test C, preemergence, 125 g ai/ha
Summary of the method: as §1

ryegrass, Italian [9] = assay: Test C preemergence; type: in vivo, Lolium multiflorum; details: 0 to 100 scale (0 no effect, 100 complete control); for Plant response rating, Ryegrass, Italian: Preemergence, 500 g ai/ha, visual rating after 10 days; for Ryegrass, Italian plant response rating: Test C, preemergence, 125 g ai/ha
Summary of the method: as §1

soybean [10] = assay: Test C preemergence; type: in vivo, Glycine max; details: 0 to 100 scale (0 no effect, 100 complete control); for Plant response rating, Soybean: Preemergence, 500 g ai/ha, visual rating after 10 days; for Soybean plant response rating: Test C, preemergence, 125 g ai/ha
Summary of the method: as §1

wheat [11] = assay: Test C preemergence; type: in vivo, Triticum aestivum; details: 0 to 100 scale (0 no effect, 100 complete control); for Plant response rating, Wheat: Preemergence, 500 g ai/ha, visual rating after 10 days; for Wheat plant response rating: Test C, preemergence, 125 g ai/ha
Summary of the method: as §1

barnyardgrass [12] = assay: Test C postemergence; type: in vivo, Echinochloa crusgalli; details: 10 days
Summary of the method: as §1

blackgrass [13] = assay: Test C postemergence; type: in vivo, Alopecurus myosuroides; details: 10 days
Summary of the method: as §1

corn [14] = assay: Test C postemergence; type: in vivo, Zea mays; details: 10 days
Summary of the method: as §1

green foxtail [15] = assay: Test C postemergence; type: in vivo, Setaria viridis; details: 10 days
Summary of the method: as §1

kochia [16] = assay: Test C postemergence; type: in vivo, Bassia scoparia; details: 10 days
Summary of the method: as §1

oat, wild [17] = assay: Test C postemergence; type: in vivo, Avena fatua; details: 10 days
Summary of the method: as §1

pigweed, palmer [18] = assay: Test C postemergence; type: in vivo, Amaranthus palmeri; details: 10 days
Summary of the method: as §1

ragweed [19] = assay: Test C postemergence; type: in vivo, Ambrosia artemisiifolia; details: 10 days
Summary of the method: as §1

ryegrass, Italian [20] = assay: Test C postemergence; type: in vivo, Lolium multiflorum; details: 10 days
Summary of the method: as §1

soybean [21] = assay: Test C postemergence; type: in vivo, Glycine max; details: 10 days
Summary of the method: as §1

wheat [22] = assay: Test C postemergence; type: in vivo, Triticum aestivum; details: 10 days
Summary of the method: as §1

galium = assay: Test C postemergence; type: in vivo, Galium aparine; details: 10 days
Summary of the method: as §1

horseweed = assay: Test C postemergence; type: in vivo, Erigeron canadensis; details: 10 days
Summary of the method: as §1

barnyardgrass [23] = assay: Test D flooded paddy test; type: in vivo, Echinochloa crus-galli; details: 250 g ai/ha, applied to paddy water, visual rating after 13 to 14 days, scale 0 to 100 (0 no effect, 100 complete control)
Summary of the method: (§2)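 Visual ratings from 0, meaning no effect, to 100, meaning complete control, were assigned against untreated controls 13 to 14 days after compounds were added to the floodwater of pots kept 3 cm deep, with plants at the 2-leaf stage.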

ducksalad = assay: Test D flooded paddy test; type: in vivo, Heteranthera limosa; details: 250 g ai/ha, applied to paddy water, visual rating after 13 to 14 days, scale 0 to 100 (0 no effect, 100 complete control)
Summary of the method: as §2

rice = assay: Test D flooded paddy test; type: in vivo, Oryza sativa; details: 250 g ai/ha, applied to paddy water, visual rating after 13 to 14 days, scale 0 to 100 (0 no effect, 100 complete control)
Summary of the method: as §2

sedge, umbrella = assay: Test D flooded paddy test; type: in vivo, Cyperus difformis; details: 250 g ai/ha, applied to paddy water, visual rating after 13 to 14 days, scale 0 to 100 (0 no effect, 100 complete control)
Summary of the method: as §2

[24] = 125 g ai/ha, postemergence, 0 to 100 scale, 0 no effect, 100 complete control
[25] = Postemergence, 500 g ai/ha, visual 0 to 100 scale (0 no effect, 100 complete control)

COc1ccc(-n2cnc(C(C)C)n2)cc1C(=O)N1C[C@H](C)Oc2c(C)cccc21 [Compound 210]
Plant response rating, Barnyardgrass (barnyardgrass [1]): 100 | Barnyardgrass plant response rating (barnyardgrass [1]): 100 | Plant response rating, Blackgrass (blackgrass [2]): 100 | Blackgrass plant response rating (blackgrass [2]): 80 | Plant response rating, Corn (corn [3]): 60 | Corn plant response rating (corn [3]): 30 | Plant response rating, Foxtail, Green (green foxtail [4]): 100 | Foxtail, Green plant response rating (green foxtail [4]): 100 | Plant response rating, Kochia (kochia [5]): 100 | Kochia plant response rating (kochia [5]): 90 | Plant response rating, Oat, Wild (oat, wild [6]): 90 | Oat, Wild plant response rating (oat, wild [6]): 60 | Plant response rating, Pigweed, Palmer (pigweed, palmer [7]): 100 | Pigweed, Palmer plant response rating (pigweed, palmer [7]): 100 | Plant response rating, Ragweed (ragweed [8]): 80 | Ragweed plant response rating (ragweed [8]): 30 | Plant response rating, Ryegrass, Italian (ryegrass, Italian [9]): 100 | Ryegrass, Italian plant response rating (ryegrass, Italian [9]): 100 | Plant response rating, Soybean (soybean [10]): 100 | Soybean plant response rating (soybean [10]): 90 | Plant response rating, Wheat (wheat [11]): 90 | Wheat plant response rating (wheat [11]): 90 | Plant response rating, Barnyardgrass (barnyardgrass [12]; [24]): 50 | Plant response rating, Barnyardgrass (barnyardgrass [12]; [25]): 100 | Plant response rating, Blackgrass (blackgrass [13]; [24]): 90 | Plant response rating, Blackgrass (blackgrass [13]; [25]): 90 | Plant response rating, Corn (corn [14]; [24]): 80 | Plant response rating, Corn (corn [14]; [25]): 90 | Plant response rating, Foxtail, Green (green foxtail [15]; [24]): 90 | Plant response rating, Foxtail, Green (green foxtail [15]; [25]): 90 | Plant response rating, Kochia (kochia [16]; [24]): 70 | Plant response rating, Kochia (kochia [16]; [25]): 90 | Plant response rating, Oat, Wild (oat, wild [17]; [24]): 80 | Plant response rating, Oat, Wild (oat, wild [17]; [25]): 80 | Plant response rating, Pigweed, Palmer (pigweed, palmer [18]; [24]): 90 | Plant response rating, Pigweed, Palmer (pigweed, palmer [18]; [25]): 100 | Plant response rating, Ragweed (ragweed [19]; [24]): 60 | Plant response rating, Ragweed (ragweed [19]; [25]): 80 | Plant response rating, Ryegrass, Italian (ryegrass, Italian [20]; [24]): 60 | Plant response rating, Ryegrass, Italian (ryegrass, Italian [20]; [25]): 90 | Plant response rating, Soybean (soybean [21]; [24]): 0 | Plant response rating, Soybean (soybean [21]; [25]): 10 | Plant response rating, Wheat (wheat [22]; [24]): 50 | Plant response rating, Wheat (wheat [22]; [25]): 90 | Plant response rating, Galium (galium; [24]): 100 | Plant response rating, Galium (galium; [25]): 100 | Plant response rating, Horseweed (horseweed; [24]): 80 | Plant response rating, Horseweed (horseweed; [25]): 80 | Plant response rating, Barnyardgrass (Flood) (barnyardgrass [23]): 20 | Plant response rating, Ducksalad (Flood) (ducksalad): 85 | Plant response rating, Rice (Flood) (rice): 15 | Plant response rating, Sedge, Umbrella (Flood) (sedge, umbrella): 100

Cc1cc(-n2cnc(C(C)C)n2)cc(C(=O)N2C[C@H](C)Oc3c(Cl)cccc32)c1Cl [Compound 220]
Plant response rating, Barnyardgrass (barnyardgrass [1]): 80 | Barnyardgrass plant response rating (barnyardgrass [1]): 50 | Plant response rating, Blackgrass (blackgrass [2]): 70 | Blackgrass plant response rating (blackgrass [2]): 40 | Plant response rating, Corn (corn [3]): 10 | Corn plant response rating (corn [3]): 0 | Plant response rating, Foxtail, Green (green foxtail [4]): 100 | Foxtail, Green plant response rating (green foxtail [4]): 100 | Plant response rating, Kochia (kochia [5]): 90 | Kochia plant response rating (kochia [5]): 80 | Plant response rating, Oat, Wild (oat, wild [6]): 70 | Oat, Wild plant response rating (oat, wild [6]): 60 | Plant response rating, Pigweed, Palmer (pigweed, palmer [7]): 100 | Pigweed, Palmer plant response rating (pigweed, palmer [7]): 90 | Plant response rating, Ragweed (ragweed [8]): 0 | Ragweed plant response rating (ragweed [8]): 0 | Plant response rating, Ryegrass, Italian (ryegrass, Italian [9]): 90 | Ryegrass, Italian plant response rating (ryegrass, Italian [9]): 80 | Plant response rating, Soybean (soybean [10]): 80 | Soybean plant response rating (soybean [10]): 0 | Plant response rating, Wheat (wheat [11]): 70 | Wheat plant response rating (wheat [11]): 20 | Plant response rating, Barnyardgrass (barnyardgrass [12]; [24]): 30 | Plant response rating, Barnyardgrass (barnyardgrass [12]; [25]): 90 | Plant response rating, Blackgrass (blackgrass [13]; [24]): 40 | Plant response rating, Blackgrass (blackgrass [13]; [25]): 50 | Plant response rating, Corn (corn [14]; [24]): 10 | Plant response rating, Corn (corn [14]; [25]): 20 | Plant response rating, Foxtail, Green (green foxtail [15]; [24]): 20 | Plant response rating, Foxtail, Green (green foxtail [15]; [25]): 50 | Plant response rating, Kochia (kochia [16]; [24]): 70 | Plant response rating, Kochia (kochia [16]; [25]): 90 | Plant response rating, Oat, Wild (oat, wild [17]; [24]): 0 | Plant response rating, Oat, Wild (oat, wild [17]; [25]): 0 | Plant response rating, Pigweed, Palmer (pigweed, palmer [18]; [24]): 90 | Plant response rating, Pigweed, Palmer (pigweed, palmer [18]; [25]): 100 | Plant response rating, Ragweed (ragweed [19]; [24]): 0 | Plant response rating, Ragweed (ragweed [19]; [25]): 0 | Plant response rating, Ryegrass, Italian (ryegrass, Italian [20]; [24]): 30 | Plant response rating, Ryegrass, Italian (ryegrass, Italian [20]; [25]): 70 | Plant response rating, Soybean (soybean [21]; [24]): 100 | Plant response rating, Soybean (soybean [21]; [25]): 100 | Plant response rating, Wheat (wheat [22]; [24]): 20 | Plant response rating, Wheat (wheat [22]; [25]): 20 | Plant response rating, Galium (galium; [24]): 100 | Plant response rating, Galium (galium; [25]): 100 | Plant response rating, Horseweed (horseweed; [24]): 60 | Plant response rating, Horseweed (horseweed; [25]): 30 | Plant response rating, Barnyardgrass (Flood) (barnyardgrass [23]): 0 | Plant response rating, Ducksalad (Flood) (ducksalad): 0 | Plant response rating, Rice (Flood) (rice): 0 | Plant response rating, Sedge, Umbrella (Flood) (sedge, umbrella): 0
